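1) Cells in 96-well plates. 2) Compound, 48 h, 5 concentrations. 3) Linear interpolation between surrounding doses. 4) Unreached endpoint = highest concentration. GI50 is the concentration that inhibits growth by half. Definition used: TGI = concentration required for complete inhibition of growth.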
What was measured:
Experiment in all cases: NCI anticancer screen, dose series, 48 h; in the data active = GI50 below about 0.43 µM; inactive = the rest
KM12 colon = system: KM12 colon
MDA-MB-231 breast = system: MDA-MB-231 breast
OVCAR-5 ovarian = system: OVCAR-5 ovarian
MDA-MB-435 = system: MDA-MB-435
SK-MEL-5 melanoma = system: SK-MEL-5 melanoma
DU-145 prostate = system: DU-145 prostate
786-0 renal = system: 786-0 renal
TK-10 renal = system: TK-10 renal
HOP-62 NSCLC = system: HOP-62 NSCLC
NCI/ADR-RES ovarian = system: NCI/ADR-RES ovarian
EKVX NSCLC = system: EKVX NSCLC
OVCAR-4 ovarian = system: OVCAR-4 ovarian
SR leukemia = system: SR leukemia
SNB-75 CNS = system: SNB-75 CNS
OVCAR-3 ovarian = system: OVCAR-3 ovarian
SK-MEL-28 melanoma = system: SK-MEL-28 melanoma
SF-539 CNS = system: SF-539 CNS
ACHN renal = system: ACHN renal
MCF7 breast = system: MCF7 breast
SF-268 CNS = system: SF-268 CNS
SF-295 CNS = system: SF-295 CNS
A549 NSCLC = system: A549 NSCLC
NCI-H226 lung = system: NCI-H226 lung
NCI-H522 lung = system: NCI-H522 lung
COLO 205 colon = system: COLO 205 colon
HS 578T breast = system: HS 578T breast
IGROV1 ovarian = system: IGROV1 ovarian
HL-60(TB) leukemia = system: HL-60(TB) leukemia

O=C(NN=C1CCCCC1)c1[nH]c2ccc(F)cc2c1-c1ccccc1
86.1 µM: TGI (NCI/ADR-RES ovarian)
inactive: GI50 (KM12 colon) 44.7 µM | GI50 (MDA-MB-231 breast) 49 µM | GI50 (OVCAR-5 ovarian) 45.6 µM | GI50 (MDA-MB-435) 35.3 µM | GI50 (SK-MEL-5 melanoma) 34.3 µM | GI50 (DU-145 prostate) 92.2 µM | GI50 (786-0 renal) 44.2 µM | GI50 (TK-10 renal) 91 µM | GI50 (HOP-62 NSCLC) 35.6 µM | GI50 (NCI/ADR-RES ovarian) 23.7 µM | GI50 (EKVX NSCLC) 63.2 µM | GI50 (OVCAR-4 ovarian) 16.9 µM | GI50 (SR leukemia) 12.9 µM | GI50 (SNB-75 CNS) 19.6 µM | GI50 (OVCAR-3 ovarian) 21.8 µM | GI50 (SK-MEL-28 melanoma) 27.3 µM | GI50 (SF-539 CNS) 52 µM | GI50 (ACHN renal) 42.6 µM | GI50 (MCF7 breast) 26.8 µM | GI50 (SF-268 CNS) 18.9 µM | GI50 (SF-295 CNS) 33.6 µM | GI50 (A549 NSCLC) 42.9 µM | GI50 (NCI-H226 lung) 49.1 µM | GI50 (NCI-H522 lung) 44.1 µM | GI50 (COLO 205 colon) 41.6 µM | GI50 (HS 578T breast) 48.3 µM | GI50 (IGROV1 ovarian) 65.9 µM | GI50 (HL-60(TB) leukemia) 18.2 µM
58.1 µM: TGI (SNB-75 CNS)
52.7 µM: TGI (HL-60(TB) leukemia)
69.4 µM: TGI (OVCAR-4 ovarian)
41.9 µM: TGI (SR leukemia)
80.4 µM: TGI (MCF7 breast)
> 100 µM: TGI (KM12 colon) | TGI (MDA-MB-231 breast) | TGI (OVCAR-5 ovarian) | TGI (MDA-MB-435) | TGI (SK-MEL-5 melanoma) | TGI (DU-145 prostate) | TGI (786-0 renal) | TGI (TK-10 renal) | TGI (HOP-62 NSCLC) | TGI (EKVX NSCLC) | TGI (OVCAR-3 ovarian) | TGI (SK-MEL-28 melanoma) | TGI (SF-539 CNS) | TGI (ACHN renal) | TGI (SF-268 CNS) | TGI (SF-295 CNS) | TGI (A549 NSCLC) | TGI (NCI-H226 lung) | TGI (NCI-H522 lung) | TGI (COLO 205 colon) | TGI (HS 578T breast) | TGI (IGROV1 ovarian)

— PubChem BioAssay (NCI)
